In PubChem BioAssay AID1645865 (Buhrlage Lab, Dana-Farber Cancer Institute and Novartis …, 2021) one finds IC50 data, which are given here for 63 molecules.

The source made the active and inactive calls.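 Rule for the calls: active = maximal inhibition of the USP30 enzyme reaching 30% or more across the dose series; inactive = the rest.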

The assay deals with Ubiquitin carboxyl-terminal hydrolase 30 (Homo sapiens) (UniProt Q70CQ3). The assay can be described thus: inhibitors of ubiquitin-specific protease 30 deubiquitylating enzyme, concentration dependence, in vitro biochemical, validation of primary hits (AID 1645865). The following applies: purified USP30, Ub-rhodamine cleavage, fluorescence, 2 h.
Sequence of Ubiquitin carboxyl-terminal hydrolase 30 (Homo sapiens) (Q70CQ3 whole entry, looked up): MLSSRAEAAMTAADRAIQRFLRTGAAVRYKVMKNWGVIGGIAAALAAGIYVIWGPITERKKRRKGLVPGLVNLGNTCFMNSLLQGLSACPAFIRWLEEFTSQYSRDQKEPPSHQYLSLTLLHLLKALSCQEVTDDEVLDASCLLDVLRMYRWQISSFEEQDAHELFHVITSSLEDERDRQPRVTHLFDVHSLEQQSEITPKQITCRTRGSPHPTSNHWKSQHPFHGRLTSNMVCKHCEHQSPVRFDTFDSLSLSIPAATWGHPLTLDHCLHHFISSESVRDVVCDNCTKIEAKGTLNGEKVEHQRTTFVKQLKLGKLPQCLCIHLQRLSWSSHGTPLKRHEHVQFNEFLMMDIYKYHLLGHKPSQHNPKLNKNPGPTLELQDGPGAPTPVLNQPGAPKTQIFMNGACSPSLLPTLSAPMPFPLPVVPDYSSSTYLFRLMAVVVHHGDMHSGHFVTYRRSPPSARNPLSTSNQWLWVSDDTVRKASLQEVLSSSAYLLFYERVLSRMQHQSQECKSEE
As to `NS(=O)(=O)c1cccc(NS(=O)(=O)c2ccc(/C=C/C(=O)OCC(=O)c3ccc(Br)cc3)cc2)c1`, the IC50 was > 50 µM (inactive). The figure for `CCCCCCCc1cc(O)cc(OC(=O)c2c(CCCCCCC)cc(O)cc2O[C@H]2O[C@H](C(O)CO)[C@@H](O)[C@@H]2O)c1` (stereo partly drawn) is 40.3 µM; for `O=C(Cn1c(=O)n(Cc2ccccc2)c(=O)c2ncccc21)NCc1ccccc1Cl` it is > 50 µM (inactive). The figure for `Cc1ccc2c(c1)N(C)C(=O)c1cc(NC(=O)c3ccc(F)cc3)ccc1O2` is 2.71 µM; for `Oc1sc(C=Nc2cc(Cl)ccc2Cl)c2ccccc12` it is 0.981 µM; for `Cc1cc(C)c(NC(=O)Cn2c(=O)n(CCC(=O)NCc3ccc4c(c3)OCO4)c(=O)c3sccc32)c(C)c1` it is 1.98 µM. As for `Cn1c(=O)c2cc(C(=O)Nc3ccc(F)cc3)cnc2n(C)c1=O`, the 50% inhibitory concentration (IC50) was 25.8 µM. Regarding `Cc1ccc(Cn2c(=O)n(CCC(=O)NCCc3ccccc3)c(=O)c3ccccc32)cc1`, the IC50 is 5.14 µM. As for `O=[N+]([O-])c1ccccc1C(c1c[nH]c2ccccc12)c1c[nH]c2ccccc12`, the figure is > 50 µM (inactive); as for `CCCN1C=NS(=O)(=O)c2cc(C(=O)Nc3ccc(OC)c(Cl)c3)ccc21`, 12.5 µM. As for `O=C(COc1ncnc2ccccc12)Nc1ccc2c(c1)OC1(CCCC1)O2`, the figure is 42.2 µM.

For the molecule `COc1ccc(CN(C(=O)c2cc(-c3ccc(C)cc3)on2)C2CCS(=O)(=O)C2)cc1` (stereo not drawn), the 50% inhibitory concentration (IC50) was 10.2 µM. For the molecule `O=C(Cn1ncc2c(N3CCCCCC3)ncnc21)NCc1ccccc1`, the IC50 is > 50 µM (inactive).

With `Oc1ccc(-c2nc3ccc(Cl)cn3c2NC2CCCCC2)cc1`, the IC50 was 14.1 µM.

As for `Cn1c2ccccc2c(=O)c2c(=O)n(Cc3ccccc3)c(-c3ccco3)nc21`, the IC50 was 1.56 µM. As for `COc1ccc(CN2CCCC23CCCN(C(=O)CCc2cccnc2)C3)cc1F` (stereo not drawn), the figure is 33.1 µM; as for `O=C(NC1CCS(=O)(=O)C1)c1ccc(N2CCC(Cc3ccccc3)CC2)nn1` (stereo not drawn), > 50 µM (inactive); as for `Cc1ccc(Cl)cc1NC(=O)c1cc(-c2ccccn2)n[nH]1`, 6.42 µM. With `Cc1ccc(NC(=O)Cc2nnc3cc(-c4nc(C)no4)ccn23)cc1`, the concentration for half-maximal inhibition (IC50) is 4.06 µM.

Take `O=S(=O)(c1ccc2c(c1)OCCO2)N(Cc1ccccc1)Cc1nnc(-c2ccccc2)o1`: the IC50 was > 50 µM (inactive). With `Cc1ccc(NC(=O)c2sc(=S)n(CCc3ccccc3)c2N)cc1`, the IC50 is 1.74 µM. As for `CN(Cc1ccccc1)S(=O)(=O)c1ccc(S(=O)(=O)N2CCN(C(=O)c3cccnc3)CC2)cc1`, the figure is 15.8 µM; as for `COc1cccc(N2C(=O)N(CC(=O)NCc3ccc(Cl)cc3)c3ccccc3S2(=O)=O)c1`, 17 µM. The figure for `COc1ccc(C(=O)CCN2CCOCC2)cc1[N+](=O)[O-]` is > 50 µM (inactive). The figure for `c1cnc(-c2n[nH]c(C3CCN(C4CCNC4)CC3)n2)cn1` (stereo not drawn) is > 50 µM (inactive); for `O=C1NC(=O)/C(=C/c2ccc(OC(=O)c3ccc(Cl)cc3Cl)cc2)N1` it is 2.41 µM; for `COc1cc2c(oc(=O)c3cc(C)cc(OC)c32)c2c([C@@H]3OC(C)[C@@H](O)[C@@](C)(O)C3O)ccc(O)c12` (stereo partly drawn) it is > 50 µM (inactive). Consider `COc1ccc(-c2cc(C(C)=O)c(C)n2CCC(=O)Nc2ccc(OC)cc2OC)cc1`, for which the IC50 is 32.2 µM.

`O=C(CN1C=NC2=NS(=O)(=O)c3ccccc3N21)Nc1cc(F)ccc1F`: the IC50 was 36.6 µM.

Turning to `O=C(CN1C(=O)COc2ccc(Cl)cc21)Nc1cccc2ncccc12`, the IC50 is > 50 µM (inactive). As for `CC1(C)CC2CC(C)(CN2Cc2c(O)ccc3ccccc23)C1` (stereo not drawn), the figure is > 50 µM (inactive); as for `Cc1cccc(NC(=O)c2ccn(COc3ccc(F)cc3F)n2)c1C`, > 50 µM (inactive); as for `COc1cc(OC)cc(-n2c(=O)c3sccc3n(CC(=O)Nc3ccc(C)cc3)c2=O)c1`, 5.2 µM. The figure for `O=C(OCc1ccc(F)cc1)c1ccc2ccccc2n1` is > 50 µM (inactive). On to `CC1(O)CC(=O)c2c(cc3cc(O)cc(O)c3c2O)C1` (stereo not drawn), for which the 50% inhibitory concentration (IC50) was 0.182 µM. With `CC1CCN(S(=O)(=O)c2ccc3[nH]cc(C(=O)NCc4ccco4)c(=O)c3c2)CC1`, the IC50 was > 50 µM (inactive). As for `O=C(Nc1ccc2c(c1)OCCO2)C1CCN(C(=O)c2cc(-c3cccnc3)n[nH]2)CC1`, the figure is > 50 µM (inactive); as for `COc1cnc(-c2ccccn2)nc1Sc1ccccc1Cl`, 2.89 µM. As for `O=C(Cn1c(=O)n(Cc2ccco2)c(=O)c2ccc(C(=O)NC3CCCC3)cc21)NCc1ccco1`, the figure is > 50 µM (inactive); as for `O=C(NCCc1ccccc1)c1nnn(Cc2cccc(Cl)c2)c1-n1cccc1`, > 50 µM (inactive); as for `Cc1c(-c2nnc(-c3ccccn3)o2)nnn1-c1cccc(Cl)c1`, 44.4 µM. The figure for `COc1ccc(C)cc1NC(=O)CSc1nc(C)nc2c1oc1ccccc12` is 17.9 µM; for `CC(C)=CCC/C(C)=C/Cc1c(O)cc2c(c1O)C(=O)OC2` it is 1.24 µM; for `CC(=O)c1cccc(NC(=O)c2ccc(-c3csc(C)n3)cc2)c1` it is > 50 µM (inactive). On to `O=C(CNc1ccc(F)c(Cl)c1)Nc1ccc2c(c1)OCCO2`, for which the IC50 is > 50 µM (inactive). For `CCOc1ccc(-c2cc3nc(C4CCN(C(=O)OC(C)(C)C)CC4)c(C(=O)Nc4cc(F)ccc4F)cn3n2)cc1`, the IC50 was > 50 µM (inactive).

Turning to `CCOc1ccc2[nH]c(=O)c(CN(C(=O)c3cccs3)C3CCCC3)cc2c1`, the half-inhibitory concentration (IC50) was 10.2 µM.

Take `COc1ccc(C2CC(=O)Nc3ccc4ccccc4c32)c(OC)c1OC` (stereo not drawn): the concentration for half-maximal inhibition (IC50) is 22.3 µM. Regarding `COc1ccc(CC(NC(C)=O)C(=O)NC2CCN(c3c(Cc4ccccc4)c(C)nc4ncnn34)CC2)cc1OC` (stereo not drawn), the IC50 is > 50 µM (inactive). On to `COc1ccc(-n2ccn3c(CCC(=O)NCc4ccc(F)cc4)nnc3c2=O)cc1`, for which the IC50 is 25.9 µM. With `O=[N+]([O-])c1ccc(NCc2ccc(-c3cccs3)s2)nc1`, the IC50 is 39.1 µM. Turning to `Cc1ccccc1NC(=O)CNc1nc(Nc2ccccc2)nc(Nc2ccccc2)n1`, the concentration for half-maximal inhibition (IC50) was 26.4 µM. As for `CCN(CC)c1nc(F)c2c(c1F)S(=O)(=O)CCN2Cc1ccccc1`, the figure is > 50 µM (inactive); as for `FC(F)(F)c1cccc(CSc2ccc3nnc(-c4ccccn4)n3n2)c1`, 14.9 µM. For `Cc1ccc(N=Cc2sc(O)c3ccccc23)c(C)c1`, the IC50 was > 50 µM (inactive). In the case of `COc1ccc(Cl)cc1-n1nnc(C(=O)N2CCc3ccccc3C2)c1C`, the IC50 is > 50 µM (inactive). As to `Nc1c(C(=O)NCCc2ccccc2)nnn1-c1ccc(F)cc1`, the IC50 is 31.2 µM.

On to `Cc1ccc(NC(=O)Cn2c(-n3nc(C)cc3C)nc3c(c2=O)CCCC3)c(C)c1`, for which the IC50 is 25.6 µM. As for `O=C(Nc1ccc2ccccc2n1)c1ccc(Cl)cc1`, the figure is 2.08 µM; as for `CCc1cc(=O)n(CC(=O)Nc2cc(C)ccc2OC)c(N2CCOCC2)n1`, 26 µM.

`CCOC(=O)Nc1ccc(N2CCn3c(nc4ccccc43)C2)cc1OC`: the IC50 was > 50 µM (inactive). Turning to `Cc1cc(/C=C2/C(=N)N3C(c4ccccc4)=CSC3=NC2=O)c(C)n1-c1ccc2ccccc2c1`, the IC50 is > 50 µM (inactive). As for `COc1cc2c(cc1OC)-c1cc(NCc3cc(OC)c(OC)c(OC)c3)nc(=O)n1CC2`, the figure is > 50 µM (inactive).

What is called IC50 is the concentration at which inhibition is half-maximal.
